Test results as given in ChEMBL document CHEMBL3132769, “Fragment growing to retain or alter the selectivity of anchored kinase hinge-binding fragments” (Medchemcomm, 2014).

Legend:
[1] = molecular target: Tyrosine-protein kinase BTK (Homo sapiens) (UniProt Q06187); assay: Inhibition of human full length BTK expressed in baculovirus assessed as substrate phosphorylation using fluorescence-labelled peptides as substrate at 0.06 uM after 90 mins by microfluidic peptide phosphorylation assay
[2] = molecular target: Calcium/calmodulin-dependent protein kinase type II subunit delta (Homo sapiens) (UniProt Q13557); assay: Inhibition of human full length CAMK2D expressed in baculovirus assessed as substrate phosphorylation using fluorescence-labelled peptides as substrate at 0.2 uM after 90 mins by microfluidic peptide phosphorylation assay
[3] = molecular target: Mitogen-activated protein kinase kinase kinase kinase 4 (Homo sapiens) (UniProt O95819); assay: Inhibition of human HGK catalytic domain expressed in baculovirus assessed as substrate phosphorylation using fluorescence-labelled peptides as substrate at […] after 90 mins by microfluidic peptide phosphorylation assay
[4] = molecular target: MAP/microtubule affinity-regulating kinase 3 (Homo sapiens) (UniProt P27448); assay: Inhibition of human full length c-TAK1 expressed in Escherichia coli cell assessed as substrate phosphorylation using fluorescence-labelled peptides as substrate at […] after 90 mins by microfluidic peptide phosphorylation assay
[5] = molecular target: Rho-associated protein kinase 2 (Homo sapiens) (UniProt O75116); assay: Inhibition of human ROCK2 catalytic domain expressed in baculovirus assessed as substrate phosphorylation using fluorescence-labelled peptides as substrate at 9 uM after 90 mins by microfluidic peptide phosphorylation assay
[6] = molecular target: T1, Serine/threonine-protein kinase DCLK2 (Homo sapiens) (UniProt Q8N568); assay: Inhibition of human full length DCAMKL2 expressed in baculovirus assessed as substrate phosphorylation using fluorescence-labelled peptides as substrate at 0.1 uM after 90 mins by microfluidic peptide phosphorylation assay
T1 sequence (whole entry): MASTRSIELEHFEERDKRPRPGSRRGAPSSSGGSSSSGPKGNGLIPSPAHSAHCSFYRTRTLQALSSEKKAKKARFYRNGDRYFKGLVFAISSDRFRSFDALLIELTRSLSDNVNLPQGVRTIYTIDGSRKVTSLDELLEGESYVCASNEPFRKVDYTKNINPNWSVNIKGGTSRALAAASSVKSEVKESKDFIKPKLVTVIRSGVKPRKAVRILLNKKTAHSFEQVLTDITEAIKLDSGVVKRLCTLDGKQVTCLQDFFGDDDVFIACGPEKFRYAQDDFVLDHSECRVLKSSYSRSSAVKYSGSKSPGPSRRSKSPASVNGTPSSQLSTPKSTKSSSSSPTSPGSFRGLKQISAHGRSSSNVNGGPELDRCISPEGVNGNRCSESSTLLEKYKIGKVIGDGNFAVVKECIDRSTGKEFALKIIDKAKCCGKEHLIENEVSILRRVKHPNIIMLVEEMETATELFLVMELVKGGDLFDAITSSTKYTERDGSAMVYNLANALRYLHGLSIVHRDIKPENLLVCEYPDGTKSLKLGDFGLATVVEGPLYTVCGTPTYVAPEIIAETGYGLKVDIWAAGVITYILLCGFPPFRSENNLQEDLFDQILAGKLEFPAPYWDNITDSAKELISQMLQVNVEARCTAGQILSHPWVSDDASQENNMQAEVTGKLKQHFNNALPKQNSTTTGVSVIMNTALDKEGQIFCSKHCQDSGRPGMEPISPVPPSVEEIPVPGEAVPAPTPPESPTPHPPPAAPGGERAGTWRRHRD

[7] = molecular target: T2, Protein kinase C epsilon type (Homo sapiens) (UniProt Q02156); settings: 0.1 uM
T2 sequence (whole entry): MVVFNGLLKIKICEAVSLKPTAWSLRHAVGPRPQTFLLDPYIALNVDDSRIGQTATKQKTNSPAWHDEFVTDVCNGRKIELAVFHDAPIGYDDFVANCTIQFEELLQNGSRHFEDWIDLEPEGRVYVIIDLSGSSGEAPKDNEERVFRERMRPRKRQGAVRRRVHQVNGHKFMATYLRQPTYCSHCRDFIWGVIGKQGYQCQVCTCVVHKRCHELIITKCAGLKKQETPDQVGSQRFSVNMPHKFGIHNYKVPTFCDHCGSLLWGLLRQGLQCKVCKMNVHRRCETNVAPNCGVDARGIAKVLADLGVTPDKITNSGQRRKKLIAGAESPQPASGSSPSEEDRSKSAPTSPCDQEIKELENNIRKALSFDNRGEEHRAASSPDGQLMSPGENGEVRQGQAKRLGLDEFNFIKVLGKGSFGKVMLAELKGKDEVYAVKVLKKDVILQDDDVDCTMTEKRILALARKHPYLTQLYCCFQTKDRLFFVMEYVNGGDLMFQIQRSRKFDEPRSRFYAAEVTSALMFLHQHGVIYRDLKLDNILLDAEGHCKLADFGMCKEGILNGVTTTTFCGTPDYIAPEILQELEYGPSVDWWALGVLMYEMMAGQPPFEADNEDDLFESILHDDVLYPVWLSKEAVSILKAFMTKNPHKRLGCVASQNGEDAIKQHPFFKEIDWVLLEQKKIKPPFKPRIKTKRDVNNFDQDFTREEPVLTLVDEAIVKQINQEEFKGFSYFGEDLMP
Description: Inhibition of human truncated PKC epsilon expressed in baculovirus assessed as substrate phosphorylation using fluorescence-labelled peptides as substrate at 0.1 uM after 90 mins by microfluidic peptide phosphorylation assay

[8] = molecular target: Platelet-derived growth factor receptor alpha (Homo sapiens) (UniProt P16234); assay: Inhibition of human PDGFR alpha catalytic domain expressed in baculovirus assessed as substrate phosphorylation using fluorescence-labelled peptides as substrate at 0.1 uM after 90 mins by microfluidic peptide phosphorylation assay
Homo sapiens = organism: Homo sapiens; assay: Inhibition of human full length PKA expressed in baculovirus assessed as substrate phosphorylation using fluorescence-labelled peptides as substrate at 95 uM after 90 mins by microfluidic peptide phosphorylation assay
[9] = molecular target: Protein kinase C delta type (Homo sapiens) (UniProt Q05655); assay: Inhibition of human truncated PKC delta expressed in baculovirus assessed as substrate phosphorylation using fluorescence-labelled peptides as substrate at 420 uM after 90 mins by microfluidic peptide phosphorylation assay
[10] = molecular target: T2, Protein kinase C epsilon type (Homo sapiens); assay: Inhibition of human truncated PKC epsilon expressed in baculovirus assessed as substrate phosphorylation using fluorescence-labelled peptides as substrate at 420 uM after 90 mins by microfluidic peptide phosphorylation assay
[11] = molecular target: T3, Mitogen-activated protein kinase 13 (Homo sapiens) (UniProt O15264); assay: Inhibition of human full length p38 delta expressed in Escherichia coli cell assessed as substrate phosphorylation using fluorescence-labelled peptides as substrate at 420 uM after 90 mins by microfluidic peptide phosphorylation assay
T3 sequence (whole entry): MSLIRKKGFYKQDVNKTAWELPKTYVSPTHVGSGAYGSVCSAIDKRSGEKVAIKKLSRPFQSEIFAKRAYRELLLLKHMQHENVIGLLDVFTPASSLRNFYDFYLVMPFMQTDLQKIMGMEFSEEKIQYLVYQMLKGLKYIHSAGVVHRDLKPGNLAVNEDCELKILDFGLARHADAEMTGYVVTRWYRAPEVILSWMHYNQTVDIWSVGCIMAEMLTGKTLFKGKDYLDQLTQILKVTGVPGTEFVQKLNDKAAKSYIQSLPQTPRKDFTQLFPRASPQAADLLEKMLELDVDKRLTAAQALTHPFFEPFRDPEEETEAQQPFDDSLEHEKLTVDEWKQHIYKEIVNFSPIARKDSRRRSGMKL

Sequence of Rho-associated protein kinase 2 (Homo sapiens) (O75116 whole entry, looked up, the tested form may be a part): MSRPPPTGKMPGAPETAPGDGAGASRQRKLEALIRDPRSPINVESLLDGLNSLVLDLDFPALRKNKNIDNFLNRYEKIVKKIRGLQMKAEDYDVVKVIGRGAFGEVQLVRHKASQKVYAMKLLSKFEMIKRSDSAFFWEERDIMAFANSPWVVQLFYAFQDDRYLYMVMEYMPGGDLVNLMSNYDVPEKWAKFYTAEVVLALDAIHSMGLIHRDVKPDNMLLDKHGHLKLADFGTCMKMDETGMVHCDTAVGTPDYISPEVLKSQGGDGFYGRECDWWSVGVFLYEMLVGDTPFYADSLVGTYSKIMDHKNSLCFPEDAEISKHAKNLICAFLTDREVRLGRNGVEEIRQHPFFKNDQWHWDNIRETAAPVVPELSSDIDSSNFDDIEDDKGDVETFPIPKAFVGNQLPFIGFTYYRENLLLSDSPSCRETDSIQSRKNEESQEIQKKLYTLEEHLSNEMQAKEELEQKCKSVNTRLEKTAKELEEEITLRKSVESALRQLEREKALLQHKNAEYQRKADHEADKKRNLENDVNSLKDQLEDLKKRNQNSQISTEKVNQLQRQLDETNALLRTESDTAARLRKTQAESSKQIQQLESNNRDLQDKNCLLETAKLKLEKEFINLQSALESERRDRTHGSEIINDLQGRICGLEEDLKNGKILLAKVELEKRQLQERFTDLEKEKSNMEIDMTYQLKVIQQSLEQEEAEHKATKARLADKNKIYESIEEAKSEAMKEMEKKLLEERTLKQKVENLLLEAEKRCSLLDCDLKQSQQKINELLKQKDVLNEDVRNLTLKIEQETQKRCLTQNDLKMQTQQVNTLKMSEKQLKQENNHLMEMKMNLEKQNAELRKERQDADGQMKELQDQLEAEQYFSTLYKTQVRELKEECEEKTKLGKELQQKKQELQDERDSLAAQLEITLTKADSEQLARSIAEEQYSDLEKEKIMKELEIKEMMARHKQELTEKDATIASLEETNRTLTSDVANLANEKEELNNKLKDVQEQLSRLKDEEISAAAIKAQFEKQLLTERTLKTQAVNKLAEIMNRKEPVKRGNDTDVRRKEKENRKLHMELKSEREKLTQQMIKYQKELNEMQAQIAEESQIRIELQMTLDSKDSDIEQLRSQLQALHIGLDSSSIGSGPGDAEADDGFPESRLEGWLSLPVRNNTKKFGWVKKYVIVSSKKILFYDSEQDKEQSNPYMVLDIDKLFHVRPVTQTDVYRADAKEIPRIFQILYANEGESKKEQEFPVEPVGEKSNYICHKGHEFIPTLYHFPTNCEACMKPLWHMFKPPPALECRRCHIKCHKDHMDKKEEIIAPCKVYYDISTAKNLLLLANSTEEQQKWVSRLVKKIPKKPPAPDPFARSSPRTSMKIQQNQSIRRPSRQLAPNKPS
Sequence of Calcium/calmodulin-dependent protein kinase type II subunit delta (Homo sapiens) (Q13557 whole entry, the tested form may be a part): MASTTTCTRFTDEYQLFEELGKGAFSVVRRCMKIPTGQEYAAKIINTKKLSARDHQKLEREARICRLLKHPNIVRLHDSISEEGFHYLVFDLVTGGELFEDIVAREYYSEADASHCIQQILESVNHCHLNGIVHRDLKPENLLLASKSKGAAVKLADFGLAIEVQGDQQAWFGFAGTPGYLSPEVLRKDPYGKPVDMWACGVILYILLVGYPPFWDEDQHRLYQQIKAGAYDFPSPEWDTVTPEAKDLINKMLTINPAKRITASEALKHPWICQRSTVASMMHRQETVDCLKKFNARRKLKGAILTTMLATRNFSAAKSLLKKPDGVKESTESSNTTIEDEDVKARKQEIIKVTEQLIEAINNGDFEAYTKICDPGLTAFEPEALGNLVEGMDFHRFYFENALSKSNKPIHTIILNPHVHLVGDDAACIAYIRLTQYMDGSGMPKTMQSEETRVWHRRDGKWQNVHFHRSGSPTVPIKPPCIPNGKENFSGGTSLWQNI
Sequence of Protein kinase C delta type (Homo sapiens) (Q05655 whole entry, looked up, the tested form may be a part): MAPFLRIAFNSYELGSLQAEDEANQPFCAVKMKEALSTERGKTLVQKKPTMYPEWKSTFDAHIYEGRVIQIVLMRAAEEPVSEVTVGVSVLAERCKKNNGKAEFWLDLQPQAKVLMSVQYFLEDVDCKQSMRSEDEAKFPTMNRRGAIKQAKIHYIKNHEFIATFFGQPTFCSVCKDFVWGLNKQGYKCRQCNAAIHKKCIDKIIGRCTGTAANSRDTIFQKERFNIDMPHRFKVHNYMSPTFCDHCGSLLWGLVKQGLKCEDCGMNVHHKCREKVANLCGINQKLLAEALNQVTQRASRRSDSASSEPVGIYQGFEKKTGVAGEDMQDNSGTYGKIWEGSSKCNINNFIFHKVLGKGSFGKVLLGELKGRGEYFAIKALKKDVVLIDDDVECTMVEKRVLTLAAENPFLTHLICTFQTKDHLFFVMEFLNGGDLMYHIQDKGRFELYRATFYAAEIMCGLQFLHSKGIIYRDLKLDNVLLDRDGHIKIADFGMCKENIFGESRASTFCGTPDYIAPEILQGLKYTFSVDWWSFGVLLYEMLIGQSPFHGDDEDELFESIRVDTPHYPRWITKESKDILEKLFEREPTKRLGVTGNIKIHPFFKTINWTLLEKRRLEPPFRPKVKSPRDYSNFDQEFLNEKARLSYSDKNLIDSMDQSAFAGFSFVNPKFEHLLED
Sequence of MAP/microtubule affinity-regulating kinase 3 (Homo sapiens) (P27448 whole entry, looked up, the tested form may be a part): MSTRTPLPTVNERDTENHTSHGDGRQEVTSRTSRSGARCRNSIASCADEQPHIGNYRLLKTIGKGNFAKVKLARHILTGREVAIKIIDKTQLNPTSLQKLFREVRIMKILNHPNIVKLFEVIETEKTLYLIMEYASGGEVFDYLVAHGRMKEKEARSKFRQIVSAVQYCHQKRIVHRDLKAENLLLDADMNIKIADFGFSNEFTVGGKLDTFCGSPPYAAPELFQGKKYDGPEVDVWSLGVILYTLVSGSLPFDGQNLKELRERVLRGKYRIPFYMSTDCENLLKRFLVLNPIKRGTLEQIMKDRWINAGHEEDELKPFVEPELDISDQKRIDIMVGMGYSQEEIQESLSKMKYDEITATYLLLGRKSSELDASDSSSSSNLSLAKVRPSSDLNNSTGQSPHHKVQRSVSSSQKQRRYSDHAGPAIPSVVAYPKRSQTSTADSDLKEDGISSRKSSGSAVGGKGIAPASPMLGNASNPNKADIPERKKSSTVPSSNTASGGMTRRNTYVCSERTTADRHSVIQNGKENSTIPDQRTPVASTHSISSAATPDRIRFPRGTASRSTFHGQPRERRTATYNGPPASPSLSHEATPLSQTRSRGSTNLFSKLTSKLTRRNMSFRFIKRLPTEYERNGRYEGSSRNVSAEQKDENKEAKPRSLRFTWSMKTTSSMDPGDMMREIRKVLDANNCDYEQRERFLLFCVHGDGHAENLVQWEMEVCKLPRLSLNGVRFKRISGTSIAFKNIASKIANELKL
Sequence of Mitogen-activated protein kinase kinase kinase kinase 4 (Homo sapiens) (O95819 2-1239 limits assumed): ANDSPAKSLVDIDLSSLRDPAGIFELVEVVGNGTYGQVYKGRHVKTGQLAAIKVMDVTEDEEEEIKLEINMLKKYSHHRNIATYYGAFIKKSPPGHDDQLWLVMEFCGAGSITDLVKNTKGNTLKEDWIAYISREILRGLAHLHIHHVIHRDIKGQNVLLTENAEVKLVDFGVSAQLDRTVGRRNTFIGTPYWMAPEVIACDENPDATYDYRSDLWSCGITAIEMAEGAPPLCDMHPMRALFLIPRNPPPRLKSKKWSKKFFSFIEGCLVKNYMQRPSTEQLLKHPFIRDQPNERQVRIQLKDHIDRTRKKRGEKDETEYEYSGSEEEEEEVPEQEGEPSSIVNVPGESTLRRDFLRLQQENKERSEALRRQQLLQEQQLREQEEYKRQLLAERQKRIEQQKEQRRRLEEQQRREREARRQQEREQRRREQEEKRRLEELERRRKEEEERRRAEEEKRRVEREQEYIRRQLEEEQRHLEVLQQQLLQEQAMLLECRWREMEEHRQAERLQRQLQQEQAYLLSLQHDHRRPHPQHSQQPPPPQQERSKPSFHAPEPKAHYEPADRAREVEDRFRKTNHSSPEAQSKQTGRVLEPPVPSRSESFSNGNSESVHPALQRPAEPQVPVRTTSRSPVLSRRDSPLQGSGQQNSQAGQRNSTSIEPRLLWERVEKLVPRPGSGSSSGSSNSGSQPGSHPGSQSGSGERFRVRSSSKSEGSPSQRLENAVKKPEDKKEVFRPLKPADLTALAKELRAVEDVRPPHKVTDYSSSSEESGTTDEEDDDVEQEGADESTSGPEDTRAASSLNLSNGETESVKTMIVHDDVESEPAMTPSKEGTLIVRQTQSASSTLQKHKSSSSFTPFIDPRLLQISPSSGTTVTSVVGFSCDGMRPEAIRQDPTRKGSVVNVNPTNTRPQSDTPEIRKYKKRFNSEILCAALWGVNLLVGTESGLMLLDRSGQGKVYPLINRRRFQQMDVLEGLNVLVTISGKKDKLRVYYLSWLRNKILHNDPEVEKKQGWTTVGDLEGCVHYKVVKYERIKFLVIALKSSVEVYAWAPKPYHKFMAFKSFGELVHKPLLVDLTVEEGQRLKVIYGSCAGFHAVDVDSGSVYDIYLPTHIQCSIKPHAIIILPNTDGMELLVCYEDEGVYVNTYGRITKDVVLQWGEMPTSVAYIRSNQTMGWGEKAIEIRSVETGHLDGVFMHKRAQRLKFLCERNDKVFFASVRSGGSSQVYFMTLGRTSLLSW

NC1(Cc2ccc(Cl)cc2)CCN(c2ncnc3[nH]ccc23)CC1
inhibition [1]: 0%

Clc1ccc(C2(c3ccc(-c4ncnc5[nH]cnc45)cc3)CCNCC2)cc1
inhibition [2]: 16%

COC(=O)c1cnc(Nc2cnc(C#N)cn2)cc1NCC1CCNCC1
inhibition [3]: 3%
inhibition [4]: 0.5%

NCC1CN(c2ncnc3[nH]c4cnccc4c23)CCO1 (configuration not stated)
inhibition [5]: 53%

C[C@H](CN(C)C)Oc1nc(Nc2cc3cccc(Cl)c3cn2)cnc1C#N
inhibition [6]: 6%
inhibition [7]: 0%
inhibition [8]: 8.5%

NCCc1ccc(-c2ncnc3[nH]cnc23)cc1
inhibition (Homo sapiens): 97.5%

c1nc(N2CCOCC2)c2nc[nH]c2n1
inhibition [9]: 78.5%
inhibition [10]: 73.5%
inhibition [11]: 34%
